Like-named read-outs stand apart in the source and are kept apart here. Non-standard residues stand in square brackets, D forms with d. Residues, ends and D or L forms follow the SMILES beside them. NMeW = CN[C@@H](Cc1c[nH]c2ccccc12)C(=O)O; Sar = CNCC(=O)O
Target: Sushi domains (SD1/2) protein
Experiment: Fluorescence polarization (FP) competition assay with AJAP-1probe, calculated Ki
Type: binding
Conditions: read-out: Ki (nM) mean ± SEM
Procedure, shortened: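 Competition against 25 nM TAMRA-labelled peptide probe binding SD1/2, in PBS pH 7.4 with 1% BSA at rt, read at 530/580 nm. IC50 from sigmoidal dose-response fits, at least triplicate; Ki calculated from IC50 using probe Kd from saturation binding.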

[1] = Table 9, Ala-, D-amino acids and N-methylation scans of PIANPWT
[2] = Table 12, deep mutational scanning validation variants of PIANPWT
[3] = Table 13, peptides for affinity maturation
[4] = Table 6, elongation and truncation scan of PIANP binding epitope

| Ki [1] [nM] | Ki [2] [nM] | SMILES | other results |
| --- | --- | --- | --- |
| 1500 ± 34 |  | CC[C@H](C)[C@H](NC(=O)[C@H](C)NC(=O)[C@H](Cc1c[nH]c2ccccc12)NC(=O)[C@@H]1CCCN1C(C)=O)C(=O)N[C@H](C(=O)N[C@@H](Cc1c[nH]c2ccccc12)C(=O)NCC(=O)N[C@@H](C)C(=O)N[C@H](C(=O)N[C@H](C(=O)N[C@@H](CO)C(=O)N[C@@H](CCCNC(=N)N)C(=O)N[C@@H](CCC(=O)O)C(=O)N[C@@H](CC(=O)O)C(N)=O)C(C)C)[C@@H](C)O)C(C)C [PWAIVWGATVSRED] (Ac-PWAIVWGATVSRED-NH2) |  |
|  | 417 ± 6 | CC[C@H](C)[C@H](NC(=O)[C@H](C)NC(=O)[C@H](Cc1c[nH]c2ccccc12)NC(=O)[C@@H]1CCCN1C(C)=O)C(=O)N[C@H](C(=O)N[C@@H](Cc1c[nH]c2ccccc12)C(=O)NCC(=O)N1CCC[C@H]1C(=O)N[C@H](C(=O)N[C@@H](CC(=O)O)C(=O)N[C@@H](CO)C(=O)N[C@@H](CCCNC(=N)N)C(=O)N[C@@H](CCC(=O)O)C(=O)N[C@@H](CC(=O)O)C(N)=O)[C@@H](C)O)C(C)C [PWAIVWGPTDSRED] (Ac-PWAIVWGPTDSRED-NH2) |  |
|  | 379 ± 9 | CC[C@H](C)[C@H](NC(=O)[C@H](C)NC(=O)[C@H](Cc1c[nH]c2ccccc12)NC(=O)[C@@H]1CCCN1C(C)=O)C(=O)N[C@H](C(=O)N[C@@H](Cc1c[nH]c2ccccc12)C(=O)NCC(=O)N1CCC[C@H]1C(=O)N[C@H](C(=O)N[C@H](C(=O)N[C@@H](CC(=O)O)C(=O)N[C@@H](CCCNC(=N)N)C(=O)N[C@@H](CCC(=O)O)C(=O)N[C@@H](CC(=O)O)C(N)=O)C(C)C)[C@@H](C)O)C(C)C [PWAIVWGPTVDRED] (Ac-PWAIVWGPTVDRED-NH2) |  |
|  | 192 ± 4 | CC[C@H](C)[C@H](NC(=O)[C@H](Cc1ccccc1)NC(=O)[C@H](Cc1c[nH]c2ccccc12)NC(=O)[C@@H]1CCCN1C(C)=O)C(=O)N[C@H](C(=O)N[C@@H](Cc1c[nH]c2ccccc12)C(=O)NCC(=O)N1CCC[C@H]1C(=O)N[C@H](C(=O)N[C@H](C(=O)N[C@@H](CO)C(=O)N[C@@H](CC(=O)O)C(=O)N[C@@H](CCC(=O)O)C(=O)N[C@@H](CC(=O)O)C(N)=O)C(C)C)[C@@H](C)O)C(C)C [PWFIVWGPTVSDED] (Ac-PWFIVWGPTVSDED-NH2) |  |

The next lines start with the molecule.

| SMILES | Ki [1] [nM] | Ki [2] [nM] | other results |
| --- | --- | --- | --- |
| CC[C@H](C)[C@H](NC(=O)[C@H](C)NC(=O)[C@H](Cc1c[nH]c2ccccc12)NC(=O)[C@@H]1CCCN1C(C)=O)C(=O)N[C@@H](C)C(=O)N[C@@H](Cc1c[nH]c2ccccc12)C(=O)NCC(=O)N1CCC[C@H]1C(=O)N[C@H](C(=O)N[C@H](C(=O)N[C@@H](CO)C(=O)N[C@@H](CCCNC(=N)N)C(=O)N[C@@H](CCC(=O)O)C(=O)N[C@@H](CC(=O)O)C(N)=O)C(C)C)[C@@H](C)O [PWAIAWGPTVSRED] | 1462 ± 14 |  |  |
| CC[C@H](C)[C@H](NC(=O)[C@H](C)NC(=O)[C@H](Cc1c[nH]c2ccccc12)NC(=O)[C@@H]1CCCN1C(C)=O)C(=O)N[C@@H](CC(=O)O)C(=O)N[C@@H](Cc1c[nH]c2ccccc12)C(=O)NCC(=O)N1CCC[C@H]1C(=O)N[C@H](C(=O)N[C@H](C(=O)N[C@@H](CO)C(=O)N[C@@H](CCCNC(=N)N)C(=O)N[C@@H](CCC(=O)O)C(=O)N[C@@H](CC(=O)O)C(N)=O)C(C)C)[C@@H](C)O [PWAIDWGPTVSRED] (Ac-PWAIDWGPTVSRED-NH2) |  | 1300 ± 16 |  |
| CC[C@H](C)[C@H](NC(=O)[C@H](C)NC(=O)[C@H](Cc1c[nH]c2ccccc12)NC(=O)[C@@H]1CCCN1C(C)=O)C(=O)N[C@H](C(=O)N(C)[C@@H](Cc1c[nH]c2ccccc12)C(=O)NCC(=O)N1CCC[C@H]1C(=O)N[C@H](C(=O)N[C@H](C(=O)N[C@@H](CO)C(=O)N[C@@H](CCCNC(=N)N)C(=O)N[C@@H](CCC(=O)O)C(=O)N[C@@H](CC(=O)O)C(N)=O)C(C)C)[C@@H](C)O)C(C)C [PWAIV(N-Me-W)GPTVSRED] (Ac-PWAIV[NMeW]GPTVSRED-NH2) | 636 ± 6 |  |  |
| CC[C@H](C)[C@H](NC(=O)[C@H](C)NC(=O)[C@H](Cc1c[nH]c2ccccc12)NC(=O)[C@@H]1CCCN1C(C)=O)C(=O)N[C@H](C(=O)N[C@@H](C)C(=O)NCC(=O)N1CCC[C@H]1C(=O)N[C@H](C(=O)N[C@H](C(=O)N[C@@H](CO)C(=O)N[C@@H](CCCNC(=N)N)C(=O)N[C@@H](CCC(=O)O)C(=O)N[C@@H](CC(=O)O)C(N)=O)C(C)C)[C@@H](C)O)C(C)C [PWAIVAGPTVSRED] (Ac-PWAIVAGPTVSRED-NH2) |  |  | Ki (Table 9, cells printed in μM): > 62500 nM |
| CC[C@H](C)[C@H](NC(=O)[C@H](C)NC(=O)[C@H](Cc1c[nH]c2ccccc12)NC(=O)[C@@H]1CCCN1C(C)=O)C(=O)N[C@H](C(=O)N[C@@H](Cc1c[nH]c2ccccc12)C(=O)N(C)CC(=O)N1CCC[C@H]1C(=O)N[C@H](C(=O)N[C@H](C(=O)N[C@@H](CO)C(=O)N[C@@H](CCCNC(=N)N)C(=O)N[C@@H](CCC(=O)O)C(=O)N[C@@H](CC(=O)O)C(N)=O)C(C)C)[C@@H](C)O)C(C)C [PWAIVW(N-Me-G)PTVSRED] (Ac-PWAIVW[Sar]PTVSRED-NH2) | 58300 ± 4410 |  |  |
| CC[C@H](C)[C@H](NC(=O)[C@H](C)NC(=O)[C@H](Cc1c[nH]c2ccccc12)NC(=O)[C@@H]1CCCN1C(C)=O)C(=O)N[C@H](C(=O)N[C@@H](Cc1c[nH]c2ccccc12)C(=O)NCC(=O)N(C)CC(=O)N[C@H](C(=O)N[C@H](C(=O)N[C@@H](CO)C(=O)N[C@@H](CCCNC(=N)N)C(=O)N[C@@H](CCC(=O)O)C(=O)N[C@@H](CC(=O)O)C(N)=O)C(C)C)[C@@H](C)O)C(C)C [PWAIVWG(N-Me-G)TVSRED] (Ac-PWAIVWG[Sar]TVSRED-NH2) | 525 ± 22 |  | Ki [3]: 525 ± 22 nM |
| CC[C@H](C)[C@H](NC(=O)[C@H](C)NC(=O)[C@H](Cc1c[nH]c2ccccc12)NC(=O)[C@@H]1CCCN1C(C)=O)C(=O)N[C@H](C(=O)N[C@@H](Cc1c[nH]c2ccccc12)C(=O)NCC(=O)N1CCC[C@H]1C(=O)N[C@@H](C)C(=O)N[C@H](C(=O)N[C@@H](CO)C(=O)N[C@@H](CCCNC(=N)N)C(=O)N[C@@H](CCC(=O)O)C(=O)N[C@@H](CC(=O)O)C(N)=O)C(C)C)C(C)C [PWAIVWGPAVSRED] (Ac-PWAIVWGPAVSRED-NH2) | 1030 ± 26 |  |  |
| CC[C@H](C)[C@H](NC(=O)[C@H](C)NC(=O)[C@H](Cc1c[nH]c2ccccc12)NC(=O)[C@@H]1CCCN1C(C)=O)C(=O)N[C@H](C(=O)N[C@@H](Cc1c[nH]c2ccccc12)C(=O)NCC(=O)N1CCC[C@H]1C(=O)N[C@H](C(=O)N[C@@H](C)C(=O)N[C@@H](CO)C(=O)N[C@@H](CCCNC(=N)N)C(=O)N[C@@H](CCC(=O)O)C(=O)N[C@@H](CC(=O)O)C(N)=O)[C@@H](C)O)C(C)C [PWAIVWGPTASRED] (Ac-PWAIVWGPTASRED-NH2) | 318 ± 3 |  |  |
| CC[C@H](C)[C@H](NC(=O)[C@H](C)NC(=O)[C@H](Cc1c[nH]c2ccccc12)NC(=O)[C@@H]1CCCN1C(C)=O)C(=O)N[C@H](C(=O)N[C@@H](Cc1c[nH]c2ccccc12)C(=O)NCC(=O)N1CCC[C@H]1C(=O)N[C@H](C(=O)NCC(=O)N[C@@H](CC(=O)O)C(=O)N[C@@H](CCC(=O)O)C(=O)N[C@@H](CC(=O)O)C(N)=O)[C@@H](C)O)C(C)C [PWAIVWGPTGDED] (Ac-PWAIVWGPTGDED-NH2) |  |  | Ki [3]: 222 ± 1 nM |
| CC[C@H](C)[C@H](NC(=O)[C@H](C)NC(=O)[C@H](Cc1c[nH]c2ccccc12)NC(=O)[C@@H]1CCCN1C(C)=O)C(=O)N[C@H](C(=O)N[C@@H](Cc1c[nH]c2ccccc12)C(=O)NCC(=O)N1CCC[C@H]1C(=O)N[C@H](C(=O)N[C@@H](CO)C(=O)N[C@@H](CO)C(=O)N[C@@H](CCCNC(=N)N)C(=O)N[C@@H](CCC(=O)O)C(=O)N[C@@H](CC(=O)O)C(N)=O)[C@@H](C)O)C(C)C [PWAIVWGPTSSRED] (Ac-PWAIVWGPTSSRED-NH2) |  | 383 ± 3 |  |
| CC[C@H](C)[C@H](NC(=O)[C@H](C)NC(=O)[C@H](Cc1c[nH]c2ccccc12)NC(=O)[C@@H]1CCCN1C(C)=O)C(=O)N[C@H](C(=O)N[C@@H](Cc1c[nH]c2ccccc12)C(=O)NCC(=O)N1CCC[C@H]1C(=O)N[C@H](C(=O)N[C@H](C(=O)N[C@@H](C)C(=O)N[C@@H](CCCNC(=N)N)C(=O)N[C@@H](CCC(=O)O)C(=O)N[C@@H](CC(=O)O)C(N)=O)C(C)C)[C@@H](C)O)C(C)C [PWAIVWGPTVARED] (Ac-PWAIVWGPTVARED-NH2) | 480 ± 4 |  |  |
| CC[C@H](C)[C@H](NC(=O)[C@H](C)NC(=O)[C@H](Cc1c[nH]c2ccccc12)NC(=O)[C@@H]1CCCN1C(C)=O)C(=O)N[C@H](C(=O)N[C@@H](Cc1c[nH]c2ccccc12)C(=O)NCC(=O)N1CCC[C@H]1C(=O)N[C@H](C(=O)N[C@H](C(=O)N[C@@H](CO)C(=O)N[C@@H](C)C(=O)N[C@@H](CCC(=O)O)C(=O)N[C@@H](CC(=O)O)C(N)=O)C(C)C)[C@@H](C)O)C(C)C [PWAIVWGPTVSAED] (Ac-PWAIVWGPTVSAED-NH2) | 341 ± 7 |  |  |
| CC[C@H](C)[C@H](NC(=O)[C@H](C)NC(=O)[C@H](Cc1c[nH]c2ccccc12)NC(=O)[C@@H]1CCCN1C(C)=O)C(=O)N[C@H](C(=O)N[C@@H](Cc1c[nH]c2ccccc12)C(=O)NCC(=O)N1CCC[C@H]1C(=O)N[C@H](C(=O)N[C@H](C(=O)N[C@@H](CO)C(=O)N[C@@H](CC(=O)O)C(=O)N[C@@H](CCC(=O)O)C(=O)N[C@@H](CC(=O)O)C(N)=O)C(C)C)[C@@H](C)O)C(C)C [PWAIVWGPTVSDED] (Ac-PWAIVWGPTVSDED-NH2) |  | 327 ± 6 |  |
| CC[C@H](C)[C@H](NC(=O)[C@H](C)NC(=O)[C@H](Cc1c[nH]c2ccccc12)NC(=O)[C@@H]1CCCN1C(C)=O)C(=O)N[C@H](C(=O)N[C@@H](Cc1c[nH]c2ccccc12)C(=O)NCC(N)=O)C(C)C [PWAIVWG] (Ac-PWAIVWG-NH2) |  |  | Ki [4]: 579 ± 21 nM |
| CC[C@H](C)[C@H](NC(=O)[C@H](C)NC(=O)[C@H](Cc1c[nH]c2ccccc12)NC(=O)[C@@H]1CCCN1C(C)=O)C(=O)N[C@H](C(=O)N[C@@H](Cc1c[nH]c2ccccc12)C(N)=O)C(C)C [PWAIVW] (Ac-PWAIVW-NH2) |  |  | Ki [4]: 706 ± 16 nM |
| CC[C@H](C)[C@H](NC(=O)[C@H](Cc1ccccc1)NC(=O)[C@H](Cc1c[nH]c2ccccc12)NC(=O)[C@@H]1CCCN1C(C)=O)C(=O)N[C@H](C(=O)N[C@@H](Cc1c[nH]c2ccccc12)C(=O)NCC(=O)N1CCC[C@H]1C(=O)N[C@H](C(=O)N[C@H](C(=O)N[C@@H](CO)C(=O)N[C@@H](CCCNC(=N)N)C(=O)N[C@@H](CCC(=O)O)C(=O)N[C@@H](CC(=O)O)C(N)=O)C(C)C)[C@@H](C)O)C(C)C [PWFIVWGPTVSRED] (Ac-PWFIVWGPTVSRED-NH2) |  | 461 ± 10 |  |

Reference: US20260193293A1, “PEPTIDES CAPABLE OF INHIBITING PROTEIN-PROTEIN INTERACTIONS AT GABAB1A SUBUNIT AND USES THEREOF” (UNIVERSITY OF COPENHAGEN, priority 2022, published 2026)
